Assay results as given in US7423054B2, “Therapeutic pyrazolo[3,4-b]pyridines and indazoles” (Warner Lambert Company LLC, priority 2004, dated 2008).
Structures can show the parent of a compound that is named as a salt.

Columns and labels:
[1] = target: T1, human norepinephrine transporter (hNET) (Homo sapiens, UniProt P23975); assay: hNET receptor binding ([125I]-RTI-55 displacement, membranes of transfected HEK-293 cells); settings: HEK-293 membranes, Ki from IC50 by Cheng-Prusoff, read-out: NET Ki
T1 construct: expressed in transfected cells; host or cells: HEK-293 cells (membrane preparation)
T1 sequence (P23975 whole entry): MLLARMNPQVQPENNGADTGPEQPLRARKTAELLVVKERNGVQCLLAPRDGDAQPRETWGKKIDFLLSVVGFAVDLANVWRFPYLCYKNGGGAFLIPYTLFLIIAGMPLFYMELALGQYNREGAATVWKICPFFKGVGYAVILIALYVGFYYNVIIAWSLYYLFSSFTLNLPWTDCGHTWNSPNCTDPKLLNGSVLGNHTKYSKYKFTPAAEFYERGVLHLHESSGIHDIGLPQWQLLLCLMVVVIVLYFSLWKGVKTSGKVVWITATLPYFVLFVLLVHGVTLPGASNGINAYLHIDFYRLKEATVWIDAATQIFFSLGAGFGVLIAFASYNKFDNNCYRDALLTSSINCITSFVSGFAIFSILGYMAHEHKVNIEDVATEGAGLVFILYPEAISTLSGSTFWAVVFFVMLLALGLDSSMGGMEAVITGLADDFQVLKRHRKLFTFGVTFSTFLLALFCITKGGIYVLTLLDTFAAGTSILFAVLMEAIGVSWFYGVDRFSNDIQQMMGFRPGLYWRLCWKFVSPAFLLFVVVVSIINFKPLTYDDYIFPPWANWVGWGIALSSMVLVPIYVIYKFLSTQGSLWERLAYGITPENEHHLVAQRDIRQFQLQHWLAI
Text: (§1) The ability of the compounds of the present invention to inhibit a norepinephrine transporter and/or a serotonin transporter can be determined using conventional radioligand receptor transport assays. The receptors can be heterologously expressed in cell lines and experiments conducted in membrane preparations from the cell lines that express a norepinephrine transporter and/or a serotonin transporter.
(§2) Cell pastes of HEK-293 cells transfected with a human norepinephrine transporter cDNA were prepared. The cell pastes were resuspended in 400 to 700 ml of Krebs-HEPES assay buffer (25 mM HEPES, 122 mM NaCl, 3 mM KCl, 1.2 mM MgSO4, 1.3 mM CaCl2, and 11 mM glucose, pH 7.4) with a Polytron homogenizer at setting 7 for 30 seconds. Aliquots of membranes (5 mg/ml protein) were stored in liquid nitrogen until used.
The binding assay was set up in Beckman deep-well polypropylene plates with a total volume of 250 μl containing: test compound (10^−5M to 10^−12M), cell membranes, and 50 pM [^125I]-RTI-55 (Perkin Elmer, NEX-272; specific activity 2200 Ci/mmol). The reaction was incubated by gentle agitation for 90 minutes at room temperature and was terminated by filtration through Whatman GF/C filter plates using a Brandel 96-well plate harvester. Scintillation fluid (100 μl) was added to each well, and bound [^125I]-RTI-55 was determined using a Wallac Trilux Beta Plate Counter. Test compounds were run in duplicate, and specific binding was defined as the difference between binding in the presence and absence of 10 μM desipramine.
Excel and GraphPad Prism software were used for data calculation and analysis. IC50 values were converted to Ki values using the Cheng-Prusoff equation. The Ki values (nM) for the hNET are reported below in Table 11.

[2] = target: T2, human serotonin transporter (hSERT) (Homo sapiens, UniProt P31645); assay: hSERT receptor binding ([125I]-RTI-55 displacement, membranes of transfected HEK-293 cells); settings: HEK-293 membranes, Ki from IC50 by Cheng-Prusoff, read-out: SERT Ki
T2 construct: expressed in transfected cells; host or cells: HEK-293 cells (membrane preparation)
T2 sequence (P31645 whole entry): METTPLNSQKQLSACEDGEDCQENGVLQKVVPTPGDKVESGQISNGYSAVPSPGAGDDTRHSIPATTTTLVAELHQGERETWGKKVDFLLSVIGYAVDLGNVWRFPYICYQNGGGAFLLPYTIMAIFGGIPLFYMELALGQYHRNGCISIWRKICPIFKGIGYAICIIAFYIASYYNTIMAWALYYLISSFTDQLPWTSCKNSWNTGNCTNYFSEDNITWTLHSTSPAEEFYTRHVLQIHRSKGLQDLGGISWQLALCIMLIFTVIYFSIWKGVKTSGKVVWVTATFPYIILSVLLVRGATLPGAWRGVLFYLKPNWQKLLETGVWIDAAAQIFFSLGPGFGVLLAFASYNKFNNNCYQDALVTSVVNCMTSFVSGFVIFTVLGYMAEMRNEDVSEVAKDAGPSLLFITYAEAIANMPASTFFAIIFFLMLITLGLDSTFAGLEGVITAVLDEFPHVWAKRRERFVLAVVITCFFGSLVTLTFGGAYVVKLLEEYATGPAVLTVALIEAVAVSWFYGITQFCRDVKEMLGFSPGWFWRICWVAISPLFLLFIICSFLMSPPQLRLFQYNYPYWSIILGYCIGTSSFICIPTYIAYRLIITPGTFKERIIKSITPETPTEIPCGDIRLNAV
Protocol: as §1
as §2, with “serotonin” for “norepinephrine”, “Setting” for “setting”, “(˜2.5” for “(5”
Assays were set up in FlashPlates pre-coated with 0.1% PEI in a total volume of 250 μl containing: test compound (10^−5M to 10^−12M), cell membranes, and 50 pM [^125I]-RTI-55 (Perkin Elmer, NEX-272; specific activity 2200 Ci/mmol). The reaction was incubated and gently agitated for 90 minutes at room temperature, and terminated by removal of assay volume. Plates were covered, and bound [^125I]-RTI-55 was determined using a Wallac Trilux Beta Plate Counter. Test compounds were run in duplicate, and specific binding was defined as the difference between binding in the presence and absence of 10 μM citalopram.
Excel and GraphPad Prism software were used for data calculation and analysis. IC50 values were converted to Ki values using the Cheng-Prusoff equation. The Ki values (nM) for the hSERT are reported below in Table 11: […]

| Compound | Ki [1] [nM] | Ki [2] [nM] |
| --- | --- | --- |
| Fc1ccccc1-n1nc(OC[C@@H]2CNCCO2)c2ccccc21 [Example 2, (S)-(+)-1-(2-Fluorophenyl)-3-(morpholin-2-ylmethoxy)-1H-indazole maleate] | 9.28 | 1620 |
| CC1(COc2nn(-c3ccccc3F)c3ccc(F)cc23)CCCNC1 (stereo not drawn) [Example 52] | 35.7 | 45.4 |
| Fc1ccc(F)c(-n2nc(OC3CCNCC3)c3c(F)cccc32)c1 [Example 90, 1-(2,5-Difluoro-phenyl)-4-fluoro-3-(piperidin-4-yloxy)-1H-indazole hydrochloride] | 10.2 | 142 |
| Clc1ccc2c(c1)c(OCC1CCCNC1)nn2-c1ccccc1 (racemic) [Example 69, (±)-5-Chloro-1-phenyl-3-(piperidin-3-ylmethoxy)-1H-indazol hydrochloride] | 98 | 339 |
| Fc1ccccc1-n1nc(OC[C@H]2CCCNC2)c2ccccc21 [Example 6, (S)-(−)-1-(2-Fluorophenyl)-3-(piperidin-3-ylmethoxy)-1H-indazole hydrochloride] | 1.65 | 192 |
| Clc1cccc2c(OC3CCNCC3)nn(-c3ccccc3)c12 [Example 61, 7-Chloro-1-phenyl-3-(piperidin-4-yloxy)-1H-indazole hydrochloride] | 20.4 | 21.7 |
| Fc1ccc2c(c1)c(OC[C@@H]1CNCCO1)nn2-c1ccccc1F [Example 46, (S)-(+)-5-Fluoro-1-(2-fluorophenyl)-3-(morpholin-2-ylmethoxy)-1H-indazole maleate] | 5.7 | 413 |
| Fc1ccc2c(c1)c(OC[C@@H]1CNCCO1)nn2-c1c(F)cccc1F [Example 50, (S)-1-(2,6-Difluoro-phenyl)-5-fluoro-3-(morpholin-2-ylmethoxy)-1H-indazole hydrochloride] | 5.2 | 1140 |
| Fc1ccc(-n2nc(OC3CCNCC3)c3c(F)cccc32)cc1 [Example 83, 4-Fluoro-1-(4-fluoro-phenyl)-3-(piperidin-4-yloxy)-1H-indazole hydrochloride] | 49.3 | 191 |
| Fc1ccc(-n2nc(OC[C@H]3CCNC3)c3ccccc32)cc1F [Example 35, (S)-1-(3,4-Difluoro-phenyl)-3-(pyrrolidin-3-ylmethoxy)-1H-indazole hydrochloride] | 24 | 82.6 |
| c1ccc(-n2nc(OC[C@@H]3CNCCO3)c3ccccc32)cc1 [Example 21, (S)-(+)-3-(Morpholin-2-ylmethoxy)-1-phenyl-1H-indazole hydrochloride] | 12.5 | 1120 |
| Fc1ccc2c(c1)c(OCC1CCCNC1)nn2-c1ccc(F)c(F)c1 (racemic) [Example 96, (±)-1-(3,4-Difluoro-phenyl)-5-fluoro-3-(piperidin-3-ylmethoxy)-1H-indazole hydrochloride] | 49.5 | 172 |
| (S)-(−)-5-Fluoro-1-(2-fluorophenyl)-3-(piperidin-3-ylmethoxy)-1H-indazole hydrochloride [Example 47] | 13 | 47 |
| Fc1ccccc1-n1nc(OCC2CCCNC2)c2cc(Cl)ccc21 (stereo not drawn) [Example 73, 5-Chloro-1-(2-fluoro-phenyl)-3-(piperidin-3-ylmethoxy)-1H-indazole hydrochloride] | 29.3 | 304 |
| Fc1cccc2c1c(OC1CCNCC1)nn2-c1ccccc1 [Example 103, 4-Fluoro-1-phenyl-3-(piperidin-4-yloxy)-1H-indazole hydrochloride] | 34.1 | 293 |
| Fc1ccc2c(OCC3CCCNC3)nn(-c3ccccc3F)c2c1 (racemic) [Example 70, (±)-6-Fluoro-1-(2-fluoro-phenyl)-3-(piperidin-3-ylmethoxy)-1H-indazole hydrochloride] | 33.6 | 200 |
| Fc1ccc(F)c(-n2nc(OC[C@@H]3CNCCO3)c3cc(F)ccc32)c1 [Example 26, (S)-1-(2,5-Difluoro-phenyl)-5-fluoro-3-(morpholin-2-ylmethoxy)-1H-indazole maleate] | 6.9 | 346 |

| Compound | Ki [1] [nM] | Ki [2] [nM] |
| --- | --- | --- |
| Fc1ccc(F)c(-n2nc(OC[C@H]3CCCNC3)c3ccccc32)c1 [Example 38, (S)-1-(2,5-Difluoro-phenyl)-3-(piperidin-3-ylmethoxy)-1H-indazole hydrochloride] | 6.09 | 199 |
| Fc1ccc(-n2nc(OC3CCNCC3)c3cc(F)ccc32)cc1 [Example 79, 5-Fluoro-1-(4-fluoro-phenyl)-3-(piperidin-4-yloxy)-1H-indazole hydrochloride] | 32.8 | 23.7 |
| Fc1ccc2c(c1)c(OC1CCNCC1)nn2-c1ccc(F)c(F)c1 [Example 97, 1-(3,4-Difluoro-phenyl)-5-fluoro-3-(piperidin-4-yloxy)-1H-indazole hydrochloride] | 28.5 | 39.5 |
| Cc1cccc2c1c(OC1CCNCC1)nn2-c1ccccc1 [Example 62, 4-Methyl-1-phenyl-3-(piperidin-4-yloxy)-1H-indazole hydrochloride] | 495 | 314 |
| c1ccc(-n2nc(OC[C@H]3CCCNC3)c3ccccc32)cc1 [Example 19, (S)-(−)-1-Phenyl-3-(piperidin-3-ylmethoxy)-1H-indazole hydrochloride] | 5.43 | 486 |
| COc1cccc2c(OC3CCNCC3)nn(-c3ccccc3)c12 [Example 60, 7-Methoxy-1-phenyl-3-(piperidin-4-yloxy)-1H-indazole hydrochloride] | 221 | 76.7 |
| Clc1ccc(-n2nc(OC3CCNCC3)c3ccccc32)cc1 [Example 41, 1-(4-Chloro-phenyl)-3-(piperidin-4-yloxy)-1H-indazole hydrochloride] | 299 | 79.7 |
| Clc1ccc2c(c1)c(OC1CCNCC1)nn2-c1ccccc1 [Example 101, 5-Chloro-1-phenyl-3-(piperidin-4-yloxy)-1H-indazole hydrochloride] | 607 | 304 |
| Fc1ccc(-n2nc(OCC3CCCNC3)c3ccccc32)cc1 (racemic) [Example 67, (±)-1-(4-Fluoro-phenyl)-3-(piperidin-3-ylmethoxy)-1H-indazole hydrochloride] | 19.7 | 191 |
| Fc1ccc2c(c1)c(OC1CCNCC1)nn2-c1c(F)cccc1F [Example 108, 1-(2,6-Difluoro-phenyl)-5-fluoro-3-(piperidin-4-yloxy)-1H-indazole hydrochloride] | 5.72 | 43 |
| Fc1ccc2c(OC3CCNCC3)nn(-c3ccccc3F)c2c1 [Example 63, 6-Fluoro-1-(2-fluoro-phenyl)-3-(piperidin-4-yloxy)-1H-indazole hydrochloride] | 39.5 | 19.4 |
| Fc1ccccc1-n1nc(OCC2CCCNC2)c2ccccc21 (stereo not drawn) [Example 4, 1-(2-Fluorophenyl)-3-(piperidin-3-ylmethoxy)-1H-indazole hydrochloride] | 3 | 270 |
| c1ccc(-n2nc(OC[C@@H]3CNCCO3)c3cccnc32)cc1 [Example 105, (S)-(+)-3-(Morpholin-2-ylmethoxy)-1-phenyl-1H-pyrazolo[3,4-b]pyridine hydrochloride] | 294 | 4240 |
| Fc1ccc(-n2nc(OC[C@H]3CCCNC3)c3c(F)cccc32)cc1 [Example 84, (S)-4-Fluoro-1-(4-fluoro-phenyl)-3-(piperidin-3-ylmethoxy)-1H-indazole hydrochloride] | 38.1 | 487 |
| Fc1ccc(F)c(-n2nc(OC[C@H]3CCCNC3)c3c(F)cccc32)c1 [Example 91, (S)-1-(2,5-Difluoro-phenyl)-4-fluoro-3-(piperidin-3-ylmethoxy)-1H-indazole hydrochloride] | 7.88 | 610 |
| Fc1cc2c(OC3CCNCC3)nn(-c3ccccc3)c2cc1F [Example 87, 5,6-Difluoro-1-phenyl-3-(piperidin-4-yloxy)-1H-indazole hydrochloride] | 197 | 57 |
